Results as given in paper PMC10793205, “Differential transmetallation of complexes of the anti-cancer thiosemicarbazone, Dp4e4mT: effects on anti-proliferative efficacy, redox activity, oxy-myoglobin and oxy-hemoglobin oxidation” (Chemical Science, 2023).

Experiments:
MRC-5 fibroblasts = assay: MTT cellular proliferation assay, mortal MRC-5 fibroblasts; type: cell-based; details: 37 °C, mean ± SD (3 experiments)
Method: To examine the selectivity of the Dp4e4mT complexes against neoplastic versus normal mortal cells, their anti-proliferative efficacy was compared to mortal MRC-5 fibroblasts after a 72 h/37 °C incubation (Table 3). […] To further examine selectivity, an in vitro therapeutic index was calculated as per our previous investigations.[28,57,59,66,67] This parameter is derived from the ratio of the IC50 of MRC-5 cells/IC50 of SK-N-MC or AsPC-1 cells; with high ratios indicating greater selective anti-proliferative activity against neoplastic cells (Table 3). The mean therapeutic index is the average of the therapeutic indices calculated for both tumor cell-types. […] The mean therapeutic index of Dp4e4mT exceeded that obtained for clinically trialed DpC (157), as well as that of Dp44mT (112) and DFO (6). […]
All cell lines were procured from the American Type Culture Collection (ATCC; Manassas, VA). The SK-N-MC neuroepithelioma cell line and the mortal MRC-5 fibroblasts were cultured in minimum essential medium (Sigma-Aldrich), while the AsPC-1 cell line was cultured in Roswell Park Memorial Institute 1640 medium (Thermo Fisher Scientific, MA, USA). Both media were supplemented with 10% fetal calf serum, non-essential amino acids (1 mM), sodium pyruvate (1 mM), L-glutamine (2 mM), penicillin (100 U/mL), streptomycin (100 U/mL), and Fungizone (0.5 µg/mL). Cells were maintained at 37 °C in an incubator under a humidified atmosphere with 5% CO 2, following established protocols. 11 Cellular Proliferation Assay
Cellular proliferation was evaluated through the established 3-(4,5-dimethylthiazol-2-yl)-2,5-diphenyltetrazolium bromide (MTT) proliferation assay, validated by viable cell counts.12 […]
Ligands and complexes were dissolved in DMSO to make a stock solution of 10 mM, subsequently diluted in culture media. For cell culture experiments, the DMSO's maximum concentration remained below 0.5% (v/v), with no discernible impact on proliferation.12 MTT […]
Trypan blue staining.12 Analysis of the data was executed employing MARS Data Analysis Software (BMG LabTech; version 3.30). The concentration of agents necessary to inhibit cellular proliferation by 50% (IC 50) was then calculated. […]

oxy-Hb = oxy-Hb (Homo sapiens, UniProt P68871+P69905); assay: Oxidation of purified oxy-Hb to met-Hb (UV-vis); type: biochemical; details: 10 μM agent, oxy-Hb 40 μM, 1–3 h/20 °C
Description: As such, it was important to examine the effect of the Dp4e4mT complexes on oxy-Hb and oxy-Mb oxidation (Fig. 6 and 7). Comparisons were made to three controls, namely DFO, Dp44mT, and DpC, as well as their Fe(III) complexes. […] In contrast, the Fe(III) complexes of Dp44mT and DpC were positive controls, as they induce oxidation of oxy-Mb.[28,39,42]
Fig. 7 (A and B) Investigation of the effects of Dp4e4mT and its Fe(III), Co(III), Ni(II), Cu(II), Zn(II), Ga(III), and Pd(II) complexes versus DFO, Dp44mT, DpC and their Fe(III) complexes (10 μM) on met-Hb generation (% zero time) after an incubation of 1–3 h/20 °C with purified oxy-Hb (40 μM). (C) Investigation of the effects of Dp4e4mT and its Fe(III), Co(III), Ni(II), Cu(II), Zn(II), Ga(III), or Pd(II) complexes relative to the positive controls DFO, Dp44mT, DpC, and their Fe(III) complexes (10 μM) on oxy-Hb oxidation in intact human erythrocytes after a 3 h/37 °C incubation. Results are mean ± SD (3 experiments).
Spectroscopic Examination of Met-Mb and Met-Hb Formation from Oxy-Mb and Oxy- […]
Oxy-Mb and oxy-Hb solutions were prepared following established protocols.8, 17 In brief, solutions of reduced Mb and Hb in PBS (pH 7.2) were prepared by adding 1.2 mL of Na2S2O4 (12 mM) to 38 mL of met-Mb and met-Hb solution (40 μM). 17 Subsequently, oxy-Mb and oxy-Hb were generated by gently passing 150 mL of oxygen (from an air-filled syringe) through the solution containing reduced Mb and Hb, effectively eliminating any residual Na2S2O4. Following this, the oxy-Mb and oxy-Hb solutions were passed through a PD-10 column prepacked with 8.3 mL of Sephadex G-25 and equilibrated with PBS (pH 7.2). 17 In experiments examining the activity of the agents, all complexes were dissolved in 1,2-propanediol, then diluted to 10 µM in PBS (pH 7.2). The experiments were conducted over incubations of 0 to 3 h with the agents. UV-Vis spectra covering the range of 300 to 700 nm were recorded at a temperature of 20°C using a Shimadzu UV−Vis spectrophotometer (UV-1800; Shimadzu, Kyoto, Japan). Concentrations of met-Mb and met-Hb, as well as reduced-Mb and reduced-Hb, were determined at 409 nm and 435 nm, respectively. Concentrations of oxy-Mb and oxy-Hb were determined at 544 nm and 582 nm, respectively. 17

[1] = Homo sapiens, MRC5, MRC-5, 72 h

Chain of oxy-Hb (P69905 2-142 limits assumed): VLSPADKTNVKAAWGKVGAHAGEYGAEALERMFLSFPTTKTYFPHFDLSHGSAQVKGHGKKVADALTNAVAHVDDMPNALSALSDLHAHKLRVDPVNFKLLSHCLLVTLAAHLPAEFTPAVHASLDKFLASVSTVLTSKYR
Chain of oxy-Hb (P68871 2-147 limits assumed): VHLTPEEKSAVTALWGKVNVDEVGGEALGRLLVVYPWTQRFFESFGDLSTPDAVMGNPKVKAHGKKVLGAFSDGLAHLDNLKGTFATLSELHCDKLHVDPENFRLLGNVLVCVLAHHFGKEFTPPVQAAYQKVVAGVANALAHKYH

SMILES | IC50 (MRC-5 fibroblasts; [1]) [nM] | IC50 (MRC-5 fibroblasts; MRC-5, 72 h) [nM] | oxy-Hb oxidation, purified oxy-Hb (in words) (oxy-Hb) | also measured
CCN(C)C(=S)NN=C(c1ccccn1)c1ccccn1 [Dp4e4mT, di-2-pyridylketone-4-ethyl-4-methyl-3-thiosemicarbazone] | 1810 ± 518 |  |  | 
CN(C)C(=S)NN=C(c1ccccn1)c1ccccn1 [Dp44mT, di-2-pyridylketone 4,4-dimethyl-3-thiosemicarbazone, reference compound] | 1073 ± 7 |  |  | 
CN(C(=S)NN=C(c1ccccn1)c1ccccn1)C1CCCCC1 [DpC, di-2-pyridylketone 4-cyclohexyl-4-methyl-3-thiosemicarbazone, reference compound] | 2987 ± 8 |  |  | 
CCN(C)C([S-])=NN=C(c1ccccn1)c1ccccn1.CCN(C)C([S-])=NN=C(c1ccccn1)c1ccccn1.[Co+3] [[Co(Dp4e4mT)2]^+] |  | 3901 ± 7 | minimal impact | oxy-Hb oxidation, purified oxy-Hb (in words) (oxy-Hb; listed as Dp4e4mT Co(III) complex): low levels of oxy-Hb oxidation
CCN(C)C([S-])=NN=C(c1ccccn1)c1ccccn1.[Cl-].[Cu+2] [[Cu(Dp4e4mT)Cl]] |  | 391 ± 72 | lowest ability to oxidize oxy-Mb and oxy-Hb | 
CCN(C)C([S-])=NN=C(c1ccccn1)c1ccccn1.CCN(C)C([S-])=NN=C(c1ccccn1)c1ccccn1.[Fe+3] [[Fe(Dp4e4mT)2]^+] |  | 1980 ± 6 |  | 
CCN(C)C([S-])=NN=C(c1ccccn1)c1ccccn1.CCN(C)C([S-])=NN=C(c1ccccn1)c1ccccn1.[Ga+3] [[Ga(Dp4e4mT)2]^+] |  | 774 ± 14 | significantly increased oxy-Mb and oxy-Hb oxidation | 
CCN(C)C([S-])=NN=C(c1ccccn1)c1ccccn1.CCN(C)C([S-])=NN=C(c1ccccn1)c1ccccn1.[Ni+2] [[Ni(Dp4e4mT)2]] |  | > 5000 | minimal impact | oxy-Hb oxidation, purified oxy-Hb (in words) (oxy-Hb; listed as Dp4e4mT Ni(II) complex): low levels of oxy-Hb oxidation
CCN(C)C([S-])=NN=C(c1ccccn1)c1ccccn1.[Cl-].[Pd+2] [[Pd(Dp4e4mT)Cl]] |  | 1040 ± 11 | minimal impact | oxy-Hb oxidation, purified oxy-Hb (in words) (oxy-Hb; listed as Dp4e4mT Pd(II) complex): low levels of oxy-Hb oxidation
CCN(C)C([S-])=NN=C(c1ccccn1)c1ccccn1.CCN(C)C([S-])=NN=C(c1ccccn1)c1ccccn1.[Zn+2] [[Zn(Dp4e4mT)2]] |  |  | significantly increased oxy-Mb and oxy-Hb oxidation | 
